Test system: human sebaceous glands (hSGs)
Test: Ex-vivo culture of human sebaceous glands (hSGs), quantification of sebum content (lipids/proteins) vs control
Type: cell-based
Conditions: positive control
Source text: All the reported examples are intended to show the modulation of sebum production exerted by the experimental preparations on human hSGs microdissected and cultivated up to day 6. At the end of the culture time, the sebum is extracted and quantified from each experimental group of hSGs and then normalized by the proteins extracted from the residual hSG material (mg lipids/mg proteins). As a result, the biological activity of the tested compounds is inferred by comparing the ratio lipids/proteins of the treated glands with that of the control group.
Using micro-scissors and tweezers, hSGs were isolated from the pilosebaceous units of a scalp skin sample. They were seeded in 24-well plates at the density of 8 hSGs/well and then cultivated in 500 μl of modified William E medium. After 24 hours of culture the viability of the hSGs was assessed by means of resazurine assay. Briefly, each hSGs group was transferred onto a microplate well with 200 μl of 10% resazurin culture medium for 2 hours. During this period the resazurin, a non-fluorescent blue dye, is reduced by living cells to the pink coloured and highly red fluorescent resorufin. At the end of the incubation, the medium was withdrawn and analyzed for the resazurin fluorescence in a plate reader ([…]). The fluorescence signal positively correlates with the hSGs viability. Since the resazurin test is not toxic, the hSGs were then seeded in a 24-well plate and cultivated with the experimental culture media in order to start the treatments. The control received William E medium appropriately modified, while the samples submitted to experimental treatments received the same medium supplemented with experimental extracts. The culture medium was renewed every other day. After six days of organ culture, the viability of the hSGs was again assessed via resazurine assay and then, having attested their good viability, each group of hGSs was collected and analyzed for quantifying the sebum content.
Each hSG group was homogenized in 100 μl of isopropyl alcohol;
the sample was centrifuged at 14,000 G for 5 minutes and then the supernatant (containing the extracted sebum) was collected;
the sebum extract was analyzed in triplicate with a Direct Detect IR Spectrometer (Millipore), which provided the total lipid concentration of the supernatant (mg/ml);
the total lipids of the hSGs was quantified multiplying the supernatant lipid concentration (indention 3) by the volume of isopropyl alcohol adopted for the lipid extraction (indention 1);
the pellet remaining from indention 2 was dried by means of a vacuum dry evaporator and then again homogenized in 50 μl of proteolytic buffer (20 mM Tris/HCl pH 7.5, 150 mM NaCl, 2 mM EDTA, 0.5% Triton X-100, 2 mM DTT, 1% protease inhibitor cocktail);
after an appropriate incubation time, this extractive mixture was centrifuged at 14,000 G for 10 minutes and the supernatant was collected and analyzed in triplicate with a Direct Detect IR Spectrometer (Millipore);
the obtained total protein concentration was multiplied by the extractive volume (indention 5) in order to quantify the total proteins of the hSGs;
the total lipid amount (indention 4), i.e. the amount of sebum, was divided by the total proteins (indention 7) in order to obtain the normalized amount of lipids per mg of proteins (mg of lipids/mg of proteins).
The amounts of normalized lipids obtained from the treated groups, i.e. the sebum produced by each group of hSGs, were expressed in percentages with respect to the value obtained in the control group, in order to point out the regulatory effect performed by the experimental treatment.

Structure (SMILES): COc1cc(CNC(=O)CCCC/C=C/C(C)C)ccc1O [Capsaicin]
- Sebum content in hSGs, Average, % ratio of the control group performance (Table 2 experiment, 5 μM): 90.3%
- Sebum content in hSGs, Average, % ratio of the control group performance (Table 5 experiment, Amount 0): 68.5%
- Sebum content in hSGs, Average, % ratio of the control group performance (Table 6 experiment (different donor), Amount 0): 59.2%
- Sebum content in hSGs, Average, % ratio of the control group performance (Table 7 experiment, Amount 0): 97.4%
- Sebum content in hSGs, Average, % ratio of the control group performance (Table 8 experiment, Amount 0): 91.9%
- Sebum content in hSGs, Average, % ratio of the control group performance (Table 10 experiment, 5 μg/ml): 62.9%

Reference: patent US10695387B2, “Extracts of microalgae and plants for regulating sebum production” (Cutech SRL, priority 2014, dated 2020)
